Patent US11680068B2, “Compounds useful as RET inhibitors” (Cancer Research Technology Limited, priority 2017, dated 2023)

Target: RET (Homo sapiens (Human), UniProt P07949)
Test: RET enzyme assay (CisBio HTRF kinEASE)
Assay type: biochemical
Conditions: tested compounds listed as lacking activity

RET, sequence (P07949 658-1114): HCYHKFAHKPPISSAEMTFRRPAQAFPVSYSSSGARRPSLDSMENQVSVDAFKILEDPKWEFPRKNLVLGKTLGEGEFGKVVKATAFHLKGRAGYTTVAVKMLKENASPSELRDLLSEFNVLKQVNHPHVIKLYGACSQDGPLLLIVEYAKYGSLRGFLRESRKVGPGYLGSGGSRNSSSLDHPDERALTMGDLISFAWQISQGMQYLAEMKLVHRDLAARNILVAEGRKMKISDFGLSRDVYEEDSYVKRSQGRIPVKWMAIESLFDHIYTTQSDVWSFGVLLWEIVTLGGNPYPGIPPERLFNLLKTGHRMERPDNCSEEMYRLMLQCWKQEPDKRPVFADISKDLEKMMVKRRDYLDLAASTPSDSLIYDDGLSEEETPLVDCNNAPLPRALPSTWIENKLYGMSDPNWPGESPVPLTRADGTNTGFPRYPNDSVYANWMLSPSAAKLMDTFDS

| Structure (SMILES) | desired activity in the assays described in Example 51 |
| --- | --- |
| CNC(=O)c1cc2ccc(-c3n[nH]c4ncnc(N)c34)cc2[nH]1 [6-(4-amino-1H-pyrazolo[3,4-d]pyrimidin-3-yl)-N-methyl-1H-indole-2-carboxamide] | did not exhibit the desired activity |
| CNC(=O)c1cc2ccc(-c3nn(CC(=O)N(C)C)c4ncnc(N)c34)cc2[nH]1 [6-[4-amino-1-[2-(dimethylamino)-2-oxo-ethyl]pyrazolo[3,4-d]pyrimidin-3-yl]-N-methyl-1H-indole-2-carboxamide] | did not exhibit the desired activity |
| CCNC(=O)c1cc2ccc(-c3nn([C@H]4CC[C@@H](O)C4)c4ncnc(NC)c34)cc2[nH]1 [N-ethyl-6-[1-[(1S,3R)-3-hydroxycyclopentyl]-4-(methylamino)pyrazolo[3,4-d]pyrimidin-3-yl]-1H-indole-2-carboxamide] | did not exhibit the desired activity |

Now from value to compound:

| desired activity in the assays described in Example 51 | Structure (SMILES) |
| --- | --- |
| did not exhibit the desired activity | CNC(=O)c1cc2ccc(-c3nn(CCC(=O)N(C)C)c4ncnc(N)c34)cc2[nH]1 [6-[4-amino-1-[3-(dimethylamino)-3-oxo-propyl]pyrazolo[3,4-d]pyrimidin-3-yl]-N-methyl-1H-indole-2-carboxamide] |
| did not exhibit the desired activity | CNC(=O)c1cc2ccc(-c3nn(CCO)c4ncnc(N)c34)cc2[nH]1 [6-[4-amino-1-(2-hydroxyethyl)pyrazolo[3,4-d]pyrimidin-3-yl]-N-methyl-1H-indole-2-carboxamide] |
| did not exhibit the desired activity | CC(C)(C)n1nc(-c2ccc3cc(C(=O)O)[nH]c3c2)c2c(N)ncnc21 [6-(4-amino-1-tert-butyl-pyrazolo[3,4-d]pyrimidin-3-yl)-1H-indole-2-carboxylic acid] |
| did not exhibit the desired activity | CC(C)(C)n1nc(-c2ccc3cc(C(=O)Nc4nnc(C(F)(F)F)s4)[nH]c3c2)c2c(N)ncnc21 [6-(4-amino-1-tert-butyl-pyrazolo[3,4-d]pyrimidin-3-yl)-N-[5-(trifluoromethyl)-1,3,4-thiadiazol-2-yl]-1H-indole-2-carboxamide] |
